The test deals with 5-hydroxytryptamine receptor 1D (Bos taurus). Briefly: Binding affinity against 5-hydroxytryptamine 1D receptor in calf caudate homogenates.

The results in this text go back to BindingDB's records for doi:10.1021/jm9706325 (Monash University (Parkville Campus), 1999).

Take `CN(C)CCc1c(C(=O)NCc2ccccc2)[nH]c2ccc(CCN3C(=O)CNC3=O)cc12`: the affinity corresponds to a Ki of 1.32 µM.

In the case of `CN(C)CCc1c(C(=O)NCc2ccccc2)[nH]c2ccc(CCN3C(=O)NC(C)(C)C3=O)cc12`, affinity was put at a Ki of 3.8 µM.

As a reminder, the Ki is the equilibrium dissociation constant of an inhibitor or competing ligand from its target. Low values mean higher affinity, high ones lower affinity.
